# Reference: PMC4492822 (EMBO Molecular Medicine, 2015)
# What was measured:
# HAPI cells [1] = format: cell-based, rat
# Description: Figure 5 Toxicity studies of RK-33 in mice • Following injection of 20 mg/kg of RK-33, twice a week for 7 weeks, extensive histopathological examination was carried out following necropsy. Identical patterns were observed both in the control and in the treated mice (n = 2). Samples were stained with H&E. Scale bar is 50 μm. • Pharmacokinetics of RK-33 in SCID mice at various time intervals. Results are mean ± SD from 5 mice. LC-MS/MS method was used to determine concentration of RK-33 in mouse plasma and tissue. • Liquid chromatography–mass spectrometry (LC-MS/MS) analysis was performed to determine different metabolites of RK-33. • RK-33 and metabolites characterized by LC-MS/MS in human liver microsomes using the scan mode function of the LC-MS/MS. • HAPI cells were treated with RK-33 (10 μM), HA14-1 (25 μM), or DMSO vehicle, followed by oligomycin (oligo, 0.5 μg/ml), FCCP (3 μM), and antimycin A (AA, 1 μM) while oxygen consumption rate (OCR) was measured. Pyruvate (10 mM) was added in combination with FCCP to ensure that substrate supply was not rate-limiting for maximal OCR. Data are mean ± SD from 2 to 3 wells and representative of independent experiments performed with two different HAPI passages. OCR is baseline-normalized to the point prior to drug or vehicle addition. • HAPI microglial cells were incubated for 1 h in glucose-free XF24 assay medium that was supplemented with 2-deoxyglucose (50 mM) and pyruvate (10 mM). RK-33 (10 μM), oligomycin (0.5 μg/ml), or vehicle control was additionally present as indicated. Results are mean ± SD from 12 replicates pooled from experiments using two consecutive passages. Significance was assessed by two-sided, unpaired t-test. […]
# Oxygen consumption measurements were performed using an XF24 Extracellular Flux Analyzer (Seahorse Bioscience, Billerica, MA) as previously described (Wu et al, [2007]; Clerc & Polster, [2012]). […] The ATP bioluminescent somatic cell assay kit (Sigma-Aldrich) was employed for the determination of ATP levels by luminescence using a FLUOstar OPTIMA multimodal plate reader (BMG LABTECH, Inc., Cary, NC). […]
# HAPI cells [2] = format: cell-based, rat; settings: 0.5 μg/ml, 1 h
smiles,measurement,setting,value
CCOC(=O)C1=C(N)Oc2ccc(Br)cc2C1C(C#N)C(=O)OCC (stereo not shown) [HA14-1],OCR measured in the presence of FCCP,"HAPI cells [1]; 25 μM, positive control",decreased OCR measured in the presence of FCCP
same,oligomycin-insensitive oxygen consumption,"HAPI cells [1]; 25 μM, positive control",elevated oligomycin-insensitive oxygen consumption
CC[C@H]1/C=C/C=C/C[C@@H](C)[C@H](O)[C@@](C)(O)C(=O)[C@@H](C)[C@H](O)[C@@H](C)C(=O)[C@@H](C)[C@H](O)[C@@H](C)/C=C/C(=O)O[C@@H]2[C@H](C)[C@H](CC1)O[C@]1(CC[C@H](C)[C@H](C[C@@H](C)O)O1)[C@H]2C [oligomycin],decrease of total cellular ATP,HAPI cells [2],approximately 70%
CCCCCC[C@H]1C(=O)O[C@H](C)[C@H](NC(=O)c2cccc(NC=O)c2O)C(=O)O[C@@H](C)[C@@H]1OC(=O)CC(C)C [antimycin A],oxygen consumption in the presence of all drugs,HAPI cells [1]; 1 μM,potently inhibited
